In brackets after ≈: the same amount, converted by molar mass. Where two headings read alike, the source gives them in different places.
Key:
[1] = tested on: fluoroquinolone-resistant S. aureus ATCC 700699; test: Minimum inhibitory concentration (MIC) assay, broth microdilution, MRSA; type: cell-based; conditions: Staphylococcus aureus
Summary of the method: (§1)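 NCCLS broth microdilution in Mueller-Hinton II broth, two-fold dilutions giving 0.125–128 μg/mL final, inoculum ~1×10^6 cfu/mL. Plates incubated in ambient air, 37 °C, 18–24 h; MIC taken as lowest concentration preventing visible growth.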

Hep2 = test: Cell viability staining with Alamar Blue (compound cytotoxicity); type: cell-based, human; conditions: Table II, comparison of R2 acetyl vs cyano
Experimental: To determine whether the microcidal effect observed against S. aureus and E. coli is specific to bacterial cells, compounds are screened for cell viability effects on several human cell types. Optimal cell density is first determined by plating cells in a 96-well plate standard sterile tissue culture plates in 100 μl media, 10% FBS at six cell densities from 500 cells/well to 15,000 cells/well. A cell free well containing only media is used as a control. Cells are incubated at 37° C. in a 5% CO2 incubator for 24 hours. 10% culture volume (10 ul) of Alamar Blue (Biosource, DAL1100, 100 mL) is then added. Cells are incubated at 37° C. in a 5% CO2 incubator and read in a Victor V plate reader, 544 nm excitation, 590 nm emission, at 3, 4, and 24 hours after the addition of Alamar Blue. The cell number vs. change in fluorescence is plotted to determine linearity of signal vs. cell number. The optimal density varies between 500-15,000 cells/well depending on the specific cell type. The optimal density is selected based on the highest number of cells that is still in the linear response range. Cells are plated at optimal cell density in a standard sterile tissue culture 96 well plate, and incubated at 37° C., O/N in a 5% CO2 incubator. 12 to 48 hours post-plating media is removed. The cells are washed 1 or 2 times with 1×PBS and replaced with fresh media containing the test compound in 1% DMSO. 24 to 72 hours after addition of compound, the media is removed, and the cells washed 1 to 2 times with 1×PBS. Fresh media containing 1/10 volume of Alamar Blue is then added. Plates are incubated 4 hours at 37° C. in a 5% CO2 incubator and read in a Victor V plate reader, 544 nm excitation, 590 nm emission. Compounds are diluted to 20 micromolar in 1% DMSO and media and screened in duplicate to obtain single concentration cytotoxicity data. Eight concentration points from 0.78 micromolar to 100 micromolar, run in duplicate, are used to determine cyclotoxicity CC50 values. Cells with 1% DMSO and media are used as a negative control, compounds having a known CC50 against a particular cell type are used as positive controls. The change in fluorescence vs. concentration of test compound is plotted to determine the cytotoxicity of the compound.

S. aureus ATCC 29213 = test: Minimum inhibitory concentration (MIC) assay, broth microdilution, MSSA; type: cell-based; conditions: Staphylococcus aureus, Table I
Summary of the method: as §1

[2] = Table II, comparison of R2 acetyl vs cyano, read-out: MRSA
[3] = fluoroquinolone-resistant S. aureus ATCC 700699, Table I, read-out: MRSA MIC

| SMILES | MIC [1, 2] [µg/mL] | MIC [1, 3] [µg/mL] | MIC (S. aureus ATCC 29213) [µg/mL] | Cytoxicity (Hep2) [µM] |
| --- | --- | --- | --- | --- |
| COc1c(N2CCNCC2)c(F)cc2c(=O)c3c(n(C4CC4)c12)SC(C#N)C3=O (stereo not shown) [Cmp 9, 9-cyclopropyl-6-fluoro-3-hydroxyl-8-methoxy-4-oxo-7-(piperazin-1-yl)-4,9-dihydrothieno[2,3-b]quinoline-2-carbonitrile] | 0.75 (≈ 1.81 µM) |  |  | 9 |
| COc1c(N2CC[C@@H](C(C)(C)N)C2)c(F)cc2c(=O)c3c(n(C4CC4)c12)SC(C#N)C3=O (stereo partly drawn) [Cmp 10, (R)-7-(3-(2-aminopropan-2-yl)pyrrolidin-1-yl)-9-cyclopropyl-6-fluoro-3-hydroxyl-8-methoxy-4-oxo-4,9-dihydrothieno [2,3-b]quinoline-2-carbonitrile] | 0.09 (≈ 0.197 µM) |  |  | 2 |
| COc1c(N2CCNCC2)c(F)cc2c(=O)c3c(O)c(C(C)=O)sc3n(C3CC3)c12 [Cmp 57, 2-acetyl-9-cyclopropyl-6-fluoro-3-hydroxyl-8-methoxy-7-(piperazin-1-yl)thieno[2,3-b]quinolin-4(9H)-one] | 1 (≈ 2.32 µM) | 1 (≈ 2.32 µM) | 0.25 (≈ 0.579 µM) | 57 |
| COc1c(N2CC[C@@H](C(C)(C)N)C2)c(F)cc2c(=O)c3c(O)c(C(C)=O)sc3n(C3CC3)c12 [Cmp 58, (R)-2-acetyl-7-(3-(2-aminopropan-2-yl)pyrrolidin-1-yl)-9-cyclopropyl-6-fluoro-3-hydroxyl-8-methoxythieno [2,3-b]quinolin-4(9H)-one] | 0.25 (≈ 0.528 µM) | 0.25 (≈ 0.528 µM) | 0.13 (≈ 0.275 µM) | 20 |

Continued, in another order:

| MIC [1, 2] [µg/mL] | MIC [1, 3] [µg/mL] | MIC (S. aureus ATCC 29213) [µg/mL] | SMILES | Cytoxicity (Hep2) [µM] |
| --- | --- | --- | --- | --- |
| 0.03 (≈ 0.07 µM) | < 0.03 | 0.02 (≈ 0.0467 µM) | COc1c(N2CC[C@@H](CN)C2)c(F)cc2c(=O)c3c(O)c(C#N)sc3n(C3CC3)c12 [Cmp 59, (S)-7-(3-(aminomethyl)pyrrolidin-1-yl)-9-cyclopropyl-6-fluoro-3-hydroxyl-8-methoxy-4-oxo-dihydrothieno[2,3-b] quinoline-2-carbonitrile] | 0.06 |
| 0.06 (≈ 0.135 µM) | 0.06 (≈ 0.135 µM) | 0.06 (≈ 0.135 µM) | COc1c(N2CC[C@@H](CN)C2)c(F)cc2c(=O)c3c(O)c(C(C)=O)sc3n(C3CC3)c12 [Cmp 60, (S)-2-acetyl-7-(3-(aminomethyl)pyrrolidin-1-yl)-9-cyclopropyl-6-fluoro-3-hydroxyl-8-methoxythieno [2,3-b]quinolin-4(9H)-one] | 11 |
| 0.13 (≈ 0.294 µM) | 0.13 (≈ 0.294 µM) | 0.03 (≈ 0.0678 µM) | COc1c(N2CCCC(CN)C2)c(F)cc2c(=O)c3c(O)c(C#N)sc3n(C3CC3)c12 (stereo not shown) [Cmp 63, 7-(3-(aminomethyl)piperidin-1-yl)-9-cyclopropyl-6-fluoro-3-hydroxyl-8-methoxy-4-oxo-dihydrothieno[2,3-b] quinoline-2-carbonitrile] | 0.4 |
| 0.25 (≈ 0.544 µM) | 0.25 (≈ 0.544 µM) | 0.13 (≈ 0.283 µM) | COc1c(N2CCCC(CN)C2)c(F)cc2c(=O)c3c(O)c(C(C)=O)sc3n(C3CC3)c12 (stereo not shown) [Cmp 64, 2-acetyl-7-(3-(aminomethyl)piperidin-1-yl)-9-cyclopropyl-6-fluoro-3-hydroxyl-8-methoxythieno [2,3-b]quinolin-4(9H)-one] | 19 |
